# Source: patent US10487117B2, “Antimicrobial peptide for nosocomial infections” (priority 2015, dated 2019)
# Residues, ends and D or L forms follow the SMILES beside them.
# Tests used:
# Format in all cases: cell-based, Pseudomonas aeruginosa
# [1] = system: planktonic P. aeruginosa; assay: DiSC3(5) cytoplasmic membrane depolarization assay, planktonic; conditions: for Depolarization %max: 10% Triton X-100 as maximum reference
# Description: To further investigate the antimicrobial mechanism of action of the peptide, its ability to depolarize P. aeruginosa membranes was evaluated. Depolarization activity was analyzed by the DiSC3(5) assay (Table 5). DiSC3(5) is a fluorescent probe, which is sensitive to membrane potential. The DiSC3(5) fluorescence is quenched upon interaction with intact cell membranes. When the membrane potential is lost, the probe is released to the medium, resulting in an increase of fluorescence that can be recorded as a function of peptide concentration. Thus, the half depolarization action (ED50) was evaluated, defined as the peptide concentration needed to achieve a half-depolarization effect, and the total depolarization activity at final incubation time (Table 3).
# Membrane depolarization was followed using the method described earlier (Torrent M. et al. 2008). Briefly, bacterial cells were grown at 37° C. to an OD600=0.2, centrifuged at 5000×g for 7 min, washed with 5 mM Hepes at pH 7.2 containing 20 mM glucose, and resuspended in 5 mM Hepes-KOH, 20 mM glucose, and 100 mM KCl at pH 7.2 to an OD600=0.05 and 200 μl were transferred to a microtiter plate for planktonic assays. For biofilm assay, 24 h formed P. aeruginosa biofilm in a 96-well microtiter plate were washed three times with sterile PBS. Afterwards P. aeruginosa biofilms were washed with 5 mM Hepes at pH 7.2 containing 20 mM glucose, and rinsed in 5 mM Hepes-KOH, 20 mM glucose, and 100 mM KCl at pH 7.2. In both cases, DiSC3(5) was added to a final concentration of 0.4 μM and changes in the fluorescence were continuously recorded after addition of peptides at 10 μM in a Victor3 plate reader. A maximum reference value for total depolarization is calculated for Triton X-100 at 10%. Alternatively, changes in the fluorescence were continuously recorded after addition of a serially diluted protein/peptides from 50 to 0.1 μM. The peptide concentration required to achieve half of total and total membrane depolarization after 40 min incubation time was estimated from nonlinear regression analysis as previously described (Torrent M. et al. 2010)
# [2] = system: established P. aeruginosa biofilms; assay: SYTOX Green membrane permeabilization assay on biofilm; conditions: maximum percentage at final incubation time, 10% Triton X-100 reference
# Description: Membrane permeabilization was followed using the method SYTOX Green Fluorescence membrane permeabilization assay. In the planktonic assay, bacterial cells were grown at 37° C. to an OD600=0.2, centrifuged at 5000×g for 5 min, and resuspended in 1×PBS to an OD600=0.2. An aliquot of 200 μl was then transferred to a microtiter plate. For biofilm assay, 24 h formed P. aeruginosa biofilm in a 96-well microtiter plate were washed three times with sterile PBS. SYTOX Green was added to a final concentration of 1 μM and incubated 15 min in darkness. Changes in the fluorescence were continuously recorded after addition of a serially diluted protein/peptides from 50 to 0.1 μM in a Victor3 plate reader. The peptide concentration required to achieve half of total and total membrane permeabilization achieved after 40 min was estimated from nonlinear regression analysis as previously described (Pulido D. et al. Antimicrob Agents Chemother 2013). A maximum reference value was taken for Triton X-100 at 10%.
# Thereupon, the antimicrobial mechanism of action of the RNase 3 derived peptide on P. aeruginosa biofilms was further characterized with the depolarization and permeabilization assays. As applied for the P. aeruginosa planktonic culture, the fluorescent DisC3(5) assay was also used here in order to monitor the depolarization activity of the studied protein and peptides against established biofilms. Therefore, we have measured the half depolarization action (ED50), and the total depolarization activity expressed as a percentage (Table 7). […] Similar results were obtained for the Sytox Green permeabilization assay, where the total permeabilization effect was hindered for all the AMPs tested, and between two to ten times higher concentrations were required to achieve half of the biofilm cell permeabilizing effect in comparison to the planktonic cells.
# [3] = Biofilm cell mortality, BacTiter-Glo luminescent assay; conditions: 24 h formed biofilm; 4 h at 37° C.; 10% Triton X-100 as maximum reference; N.D. = not detected at 50 μM; read-out: Biofilm cell mortality (%max)
# Description: Bacterial viability was assayed using the BacTiter-Glo™ microbial cell viability kit. Briefly, protein/peptides were dissolved in 10 mM sodium phosphate, 0.1M buffer, pH 7.5, serially diluted from 50 to 0.1 μM and tested in a 96-well microtiter plate containing P. aeruginosa planktonic (OD600˜0.2) or 24 h formed biofilm for 4 h at 37° C. Fifty microliters of BacTiter-Glo™ reagent was added to each well according to the manufacturer's instructions and incubated at room temperature for 15 min. Luminescence was read on a Victor3 plate reader with a 3-s integration time. Fifty percent (ED50) and total inhibitory concentrations were calculated by fitting the data to a dose-response curve.
# As a first approach, the biofilm cell viability was monitored using the BacTiter-Glo™ luminescent assay. Therefore, the antimicrobial action of the studied AMPs was determined on already established P. aeruginosa biolfilms (FIG. 1 and Table 6). […] However, for all the active peptides, the concentrations needed to produce an equivalent effect in biofilms were between 2 to 10 times higher than in planktonic cultures. […] At the same time, we applied the crystal violet technique to assess the peptide ability to disperse pre-established P. aeruginosa biofilms.
# Biofilm formation assay was modified from the previously described protocol (Huedo P. et al. 2014). Briefly, overnight cultures of P. aeruginosa were centrifuged at 5000×g for 5 min, washed and adjusted to an OD600=0.1 in tryptic soy medium (TSB). Two hundred microliters of the bacterial suspension were dispensed in each well of a polystyrene 96-well microtiter plate (Greiner Bio-one, France). The plate was incubated at 37° C. on an orbital shaker (30 rpm). The media was exchanged with fresh pre-warmed TSB after 4 h, in order to remove the non-attached bacteria. After 24 h incubation, the formation of biofilm was then evaluated using the crystal violet staining technique (Stepanovic S. et al. 2000). Briefly, the plates were washed three times with PBS, fixed at 60° C. for 1 h, and stained for 15 min with 200 μl of 0.1% crystal violet. After the dye was discarded, plates were rinsed in PBS and allowed to dry for 30 min at 37° C. Crystal violet was dissolved in 250 μl of 95% ethanol for 15 min, and the OD570 of the extracted dye was measured using a Victor3 plate reader (Perkin-Elmer, Waltham, Mass.).
SMILES,"Depolarization ED50 ([1]; 40 min, N.D. = not detected at 50 μM)",Permeabilization Mean % ± SEM [2],Depolarization %max [1],mortality [3]
"CC[C@H](C)[C@H](NC(=O)[C@H](CCC(N)=O)NC(=O)CN)C(=O)N[C@H](C(=O)N[C@@H](CC(N)=O)C(=O)N[C@@H](CC(C)C)C(=O)N[C@@H](CCCCN)C(=O)N[C@@H](C)C(=O)N[C@@H](CO)C(=O)N[C@@H](CC(C)C)C(=O)N[C@@H](CC(=O)O)C(=O)N[C@@H](CC(C)C)C(=O)N[C@@H](CC(C)C)C(N)=O)[C@@H](C)CC [GL-13, GQIINLKASLDLL-NH2] (H-GQIINLKASLDLL-NH2)",not able to produce any depolarization effect,,,
CC[C@H](C)[C@H](NC(=O)CNC(=O)[C@@H](NC(=O)[C@H](CCCCN)NC(=O)[C@H](CCCCN)NC(=O)[C@H](Cc1ccccc1)NC(=O)[C@H](CC(C)C)NC(=O)[C@H](CCCCN)NC(=O)[C@H](Cc1c[nH]c2ccccc12)NC(=O)[C@@H](N)CCCCN)[C@@H](C)CC)C(=O)NCC(=O)N[C@@H](C)C(=O)N[C@H](C(=O)N[C@@H](CC(C)C)C(=O)N[C@@H](CCCCN)C(=O)N[C@H](C(=O)N[C@@H](CC(C)C)C(=O)N[C@H](C(=O)N[C@H](C(=O)NCC(=O)N[C@@H](CC(C)C)C(=O)N1CCC[C@H]1C(=O)N[C@@H](C)C(=O)N[C@@H](CC(C)C)C(=O)N[C@H](C(=O)N[C@@H](CO)C(N)=O)[C@@H](C)CC)[C@@H](C)O)[C@@H](C)O)C(C)C)C(C)C [CA-M],,23.01 ± 1.13%,71.36 ± 7.60%,54.3 ± 5.51%
CC[C@H](C)[C@H](NC(=O)[C@H](CCCCN)NC(=O)[C@H](CCC(=O)O)NC(=O)[C@H](CCCCN)NC(=O)[C@H](CO)NC(=O)[C@H](CCCCN)NC(=O)[C@H](CCCNC(=N)N)NC(=O)[C@H](Cc1ccccc1)NC(=O)[C@H](Cc1ccccc1)NC(=O)[C@H](CC(=O)O)NC(=O)CNC(=O)[C@H](CC(C)C)NC(=O)[C@@H](N)CC(C)C)C(=O)NCC(=O)N[C@@H](CCCCN)C(=O)N[C@@H](CCC(=O)O)C(=O)N[C@@H](Cc1ccccc1)C(=O)N[C@@H](CCCCN)C(=O)N[C@@H](CCCNC(=N)N)C(=O)N[C@H](C(=O)N[C@H](C(=O)N[C@@H](CCC(N)=O)C(=O)N[C@@H](CCCNC(=N)N)C(=O)N[C@H](C(=O)N[C@@H](CCCCN)C(=O)N[C@@H](CC(=O)O)C(=O)N[C@@H](Cc1ccccc1)C(=O)N[C@@H](CC(C)C)C(=O)N[C@@H](CCCNC(=N)N)C(=O)N[C@@H](CC(N)=O)C(=O)N[C@@H](CC(C)C)C(=O)N[C@H](C(=O)N1CCC[C@H]1C(=O)N[C@@H](CCCNC(=N)N)C(=O)N[C@H](C(=O)N[C@@H](CCC(=O)O)C(=O)N[C@@H](CO)C(N)=O)[C@@H](C)O)C(C)C)[C@@H](C)CC)C(C)C)[C@@H](C)CC [LL-37],,24.21 ± 3.71%,28.24 ± 2.91%,64 ± 3.33%
